Structures are written as SMILES. Results filed as inconclusive are left out. Activity calls are given as the source filed them. The rule behind the calls is not given here. Where only a bound is given, the exact number is not on record here.

For the test, the system named is Mycobacterium tuberculosis non-replicating, growth inhibition. Briefly: growth inhibition of non-replicating M. tuberculosis (AID 488890).
Broadly, the IC50 is the midpoint of a concentration-inhibition curve. Regarding `Cc1cc(NC(=O)COC(=O)COc2ccc(C(=O)c3ccccc3)cc2)no1`, the IC50 is 18.3 µM (inactive).

Take `CN1CCN(Cc2cc(C(C)(C)C)c(O)c(C(C)(C)C)c2)CC1`: the IC50 was 11.8 µM (inactive).

`Cn1c(=O)c(C(=O)Nc2ccccn2)c(O)c2ccccc21`: the IC50 is 13.2 µM (inactive).

With `COc1ccccc1-c1nnc(Sc2nc([N+](=O)[O-])nn2C)o1`, the concentration for half-maximal inhibition (IC50) was 8.19 µM.

With `CCOC(=O)C(Nc1ccc2ccccc2c1)C(=O)OCC`, the IC50 was 7.7 µM.

For `CCOC(=O)c1c(C)nc2c3ccccc3ccn12`, the IC50 was 13.3 µM (inactive).

Regarding `CCOc1cccc(CNCCc2c(C)[nH]c3ccc(OC(F)(F)F)cc23)c1O`, the IC50 was 9.79 µM.

In the case of `CCc1ccc(NC(=O)CCc2ccc(C)o2)cc1`, the IC50 is 9.6 µM.

For the molecule `CCCCN(C/C=C/c1ccccc1OC)Cc1ccccc1`, the half-inhibitory concentration (IC50) is 8.78 µM.

As for `O=C1C=CC(=O)N1N(c1ccccc1)c1ccccc1`, the IC50 is 8.68 µM.

In the case of `O=C(NCC1CCCCC1)c1ccco1`, the IC50 was 2.18 µM.

As for `CC(C)(C)C(=O)COc1ccccc1[N+](=O)[O-]`, the IC50 was 17.6 µM (inactive).

For `Cc1cccc(NC(=O)c2cc3ccccc3oc2=O)c1`, the IC50 was 10.5 µM (inactive).

On to `Cc1ccc2c(c1)c1c3n2CCN=C3CCC1`, for which the IC50 is 15.2 µM (inactive).

Turning to `Cc1cc(C=C2C(=O)NC(=S)NC2=O)c(C)n1C1CCCC1`, the IC50 was 3.88 µM.

With `O=C(COC(=O)c1ccc(Br)o1)NCCCc1ccccc1`, the 50% inhibitory concentration (IC50) is 6.5 µM.

Regarding `COc1ccc(NC(=O)COc2ccc3c(c2)CCC3)cc1`, the concentration for half-maximal inhibition (IC50) is 4.54 µM.

Consider `O=C(COC(=O)c1cc(Br)ccc1Cl)NC1CCCC1`, for which the IC50 is 4.84 µM.

`CCC(=O)Nc1nc2ccccc2n1Cc1ccc(Cl)cc1`: the IC50 was 0.84 µM.

For the molecule `CCn1cc(C(=O)O)c(=O)c2cc(F)c(N3CCN(C(=S)NC(=O)c4ccccc4)CC3)cc21`, the IC50 is 16.8 µM (inactive).

For the molecule `CC(C)(C)NC(=O)c1ccc(NC(=O)c2ccccc2-c2ccccc2C(=O)O)cc1`, the concentration for half-maximal inhibition (IC50) is 3.71 µM.

As for `CCCCCOc1ccc(CSC2=NCCN2)cc1[N+](=O)[O-]`, the IC50 was 23.4 µM (inactive).

For `O=c1c2cc(Br)ccc2nc(-c2cccc(C(F)(F)F)c2)n1O`, the IC50 is 0.43 µM.

Regarding `C/C(=N\NC(=O)c1cccc(Br)c1)c1ccccn1`, the IC50 was 3.65 µM.

Turning to `CC(C)Cn1c(N)c(C(=O)COC(=O)c2ccc([N+](=O)[O-])o2)c(=O)n(C)c1=O`, the IC50 was 2.86 µM.

In the case of `Cc1ccc(C(C)NC(=O)c2cc3ccccc3oc2=O)cc1C` (centres undefined), the IC50 is 3.07 µM.

As for `C/C(Cn1nnc([N+](=O)[O-])n1)=N\NC(=O)c1ccncc1`, the IC50 was 1.63 µM.

With `CC(=O)Oc1c(C)cc(Cl)cc1C(=O)Nc1ccc([N+](=O)[O-])cc1Cl`, the IC50 was 2.71 µM.

As for `O=c1cc(C(F)(F)F)[nH]c2c(C(F)(F)F)cccc12`, the IC50 is 5.78 µM.

Consider `Cc1c(-c2ccc(Br)cc2)nc2ccccn12`, for which the IC50 was 18.9 µM (inactive).

For `CN1CCC(O)(c2ccccc2)C(C(=O)c2ccccc2)C1` (centres undefined), the IC50 is 4.85 µM.

For `C=C1CCC[C@]2(C)C[C@H]3OC(=O)C(CNC(C)CCCC(C)C)[C@H]3CC12` (some centres undefined), the IC50 was 15.3 µM (inactive).

Regarding `CCn1nnc(NC(=O)COc2ccc(C3CCCCC3)cc2)n1`, the IC50 is 1.5 µM.

For `CCOC(=O)c1cnc(Nc2nc3ccccc3o2)nc1CSC(=S)N1CCCCC1`, the IC50 was 1.49 µM.

For `O=C(Nc1ccccc1)c1nnsc1S(=O)c1ccc(Cl)cc1` (centres undefined), the IC50 is 0.34 µM.

With `S=C(Nc1ccc2c(c1)OCO2)Nc1ccc2c(c1)OCO2`, the IC50 was 12.8 µM (inactive).

With `Cc1cc(C)cc(OC(=O)CCN2C(=O)c3ccccc3C2=O)c1`, the IC50 is 19.4 µM (inactive).

On to `O=C1N(c2ccc3c(c2)OCCO3)C(c2ccccc2)C1(F)F` (centres undefined), for which the IC50 is 2.28 µM.

For the molecule `COc1ccc(NC(=O)COc2ccccc2)cc1Cl`, the IC50 is 22.2 µM (inactive).

Consider `COc1ccc2cc(C(=O)NCc3ccccc3)c(=O)oc2c1`, for which the IC50 is 39.3 µM (inactive).

On to `COc1cccc(F)c1C(C[N+](=O)[O-])c1c(N)n(C)c(=O)n(C)c1=O` (centres undefined), for which the IC50 was 7.59 µM.

Regarding `COc1ccc(C(=O)COC(=O)c2ccc([N+](=O)[O-])s2)cc1OC`, the IC50 was 2.8 µM.

As to `O=C(Oc1ccc(/C=N/O)cc1)c1ccccc1Cl`, the IC50 was 12.4 µM (inactive).

Regarding `O=C(Cc1ccccc1)N/N=C/c1ccc([N+](=O)[O-])s1`, the IC50 is 14 µM (inactive).

With `Cc1ccc(-c2nnc(C)c(N3CCCC3)n2)cc1`, the IC50 is 8.94 µM.

For the molecule `O=Cc1ccc(-c2ccc(Cl)cc2Cl)[nH]1`, the IC50 is 17.3 µM (inactive).

On to `CCOC(=O)CN1NC2(CCCC(C)C2)NC1=S` (centres undefined), for which the IC50 was 11.9 µM (inactive).

For the molecule `Cc1cccc(CC(=O)NCC2CCCCC2)c1`, the IC50 was 16.7 µM (inactive).

Turning to `O=C(OCC(=O)c1c[nH]c2ccccc12)c1ccc([N+](=O)[O-])s1`, the IC50 is 0.79 µM.

In the case of `COc1cccc(-c2cc3nc4c(c(NCC(C)(C)CN(C)C)n3n2)CCCC4)c1`, the IC50 was 26.2 µM (inactive).

Turning to `C/C(=N\NC(=O)CCc1ccccc1)C1C(=O)c2ccccc2C1=O`, the IC50 is 0.25 µM.

With `O=C(N/N=C/c1ccc([N+](=O)[O-])o1)c1ccc(NS(=O)(=O)c2cccs2)cc1`, the IC50 is 9.88 µM.

Consider `Cc1ccc(NCCC(=O)c2cccs2)cc1C`, for which the IC50 is 6.07 µM.

For `Cc1ccc(NC(=O)CCSc2nnc(-c3ccco3)o2)cc1`, the IC50 was 8.38 µM.

Turning to `CC(C)(C)OC(=O)NCCc1nnc(S(=O)(=O)Cc2ccc(Cl)cc2Cl)o1`, the IC50 is 4.85 µM.

Turning to `O=C(Nc1ccc(Cc2ccncc2)cc1)c1ccc([N+](=O)[O-])o1`, the IC50 is 1.74 µM.

Take `O=C(Nc1nc2ccccc2n1CCN1CCCC1)c1ccc(Cl)cc1`: the IC50 was 12.5 µM (inactive).

For the molecule `CCN(CC)c1ccc(NC2CC(=O)N(CCc3ccc(OC)cc3)C2=O)cc1` (centres undefined), the IC50 is 25.6 µM (inactive).

For `COc1ccc(C(=O)C2CCCN(C(=O)c3ccc(CSC)o3)C2)cc1F` (centres undefined), the IC50 was 42.2 µM (inactive).

As for `Cc1c(C(=O)N(C)C)sc2nc(-c3ccccn3)[nH]c(=O)c12`, the IC50 was 32.7 µM (inactive).

On to `O=C(CN1CCC(NC(=O)c2cccc(F)c2)CC1)Nc1ccc(Br)cc1`, for which the IC50 is 31.9 µM (inactive).

For the molecule `O=C(COC(=O)c1ccccc1)NCc1cccs1`, the IC50 was 37.4 µM (inactive).

Consider `Cc1cc2oc3ccc(NCCCn4ccnc4)cc3c(=O)c2cc1C`, for which the IC50 is 20.9 µM (inactive).

As to `CCOC(=O)COc1ccc2c3c(c(=O)oc2c1C)CCC3`, the IC50 was 14 µM (inactive).

`CCc1cc2c(=O)n(C(C)C(=O)OC3CCCCC3)cnc2s1` (centres undefined): the IC50 is 16.6 µM (inactive).

As to `O=C(c1ccc(Br)o1)N1CCC(Cc2ccccc2)CC1`, the IC50 is 3.77 µM.

For `Cc1ccc(C(=O)Oc2cccc(-n3cnnn3)c2)cc1`, the IC50 is 25.3 µM (inactive).

In the case of `CC1=NN(C(=O)COc2ccccc2)C(O)(c2ccccc2)C1` (centres undefined), the IC50 was 1.36 µM.

For the molecule `O=C(Oc1cccc2cccnc12)c1cccc([N+](=O)[O-])c1`, the IC50 is 3 µM.

Regarding `C[C@H](NC(=O)c1[nH]cnc1C(=O)Nc1ccccc1)C(=O)OC(C)(C)C`, the IC50 is 18.9 µM (inactive).

On to `CC1Cc2cc(/C=C3/SC(=S)NC3=O)ccc2O1` (centres undefined), for which the IC50 is 3.01 µM.

Consider `COc1ccc(CN=C2NN=C(c3ccc(Cl)cc3)CS2)cc1`, for which the IC50 is 13.8 µM (inactive).

For `Cc1ccc(OC(=O)c2ccc(Br)o2)cc1`, the IC50 is 13.6 µM (inactive).

As to `Fc1ccc(-c2nn(-c3ccccc3)cc2CNCc2ccccc2)cc1`, the IC50 is 8.72 µM.

Take `O=C1CC(N2CCC(C(=O)N3CCCCC3)CC2)C(=O)N1` (centres undefined): the IC50 is 12.3 µM (inactive).

Regarding `CCC(=O)Nc1ccc(C(=O)NNC(=O)c2cc([N+](=O)[O-])cc([N+](=O)[O-])c2)cc1`, the IC50 was 12.9 µM (inactive).

Take `Cc1ccc2nc(/N=C(\N)NC(=O)NC3CCCCC3)nc(C)c2c1`: the IC50 was 8.34 µM.

`O=c1c(O)c(-c2cccs2)oc2ccc(Cl)cc12`: the half-inhibitory concentration (IC50) is 1.08 µM.

As for `C/C(=N\NC(=O)c1ccc(CN2CCc3ccccc3C2)cc1)c1ccccc1O`, the half-maximal inhibitory concentration (IC50) was 0.7 µM.

For `COc1ccccc1OCCN1CSC(=S)N(C)C1`, the IC50 was 8.14 µM.

`COc1ccc(Cl)cc1N=Cc1c(O)c2ccccc2oc1=O`: the IC50 is 44.3 µM (inactive).

With `O=C(CCNc1cccc(F)c1)c1cccc([N+](=O)[O-])c1`, the IC50 was 5.37 µM.

`O=C(N/N=C/c1cccc2cccnc12)c1ccccc1O`: the IC50 is 3.16 µM.

Take `CCC(=O)c1ccc(OCC(=O)OCC(=O)c2cc(C)n(C3CC3)c2C)cc1`: the IC50 was 7.97 µM.

Turning to `Cc1ccc(NC(C)C(=O)N/N=C/c2ccc([N+](=O)[O-])s2)cc1` (centres undefined), the IC50 was 5.74 µM.

Turning to `CCOC(=O)c1c(C)[nH]c(C)c1C(=O)COC(=O)c1ccc([N+](=O)[O-])s1`, the IC50 is 1.65 µM.

Consider `Clc1ccc(SCCCCN2CCNCC2)cc1`, for which the IC50 was 39.3 µM (inactive).

Consider `O=C(OCc1ccc([N+](=O)[O-])cc1)c1cc2ccccc2oc1=O`, for which the IC50 is 12.5 µM (inactive).

`COc1ccc(C(=O)OCn2nnc3ccccc3c2=O)cc1`: the IC50 was 28.6 µM (inactive).

In the case of `CCc1ccccc1NC(=O)C1COc2ccccc2O1` (centres undefined), the IC50 is 19.8 µM (inactive).

As for `CCCOc1ccc(C(=O)NNC(=S)NC(=O)c2cccs2)cc1`, the concentration for half-maximal inhibition (IC50) was 0.46 µM.

With `CCCCN(C)C(=O)c1cc2cc3ccc(OC)cc3nc2s1`, the IC50 is 6.04 µM.

In the case of `CC1=CC(C)(C)Nc2ccc(OC(=O)CN3C(=O)c4ccccc4C3=O)cc21`, the IC50 is 9.07 µM.

As for `Cc1cccc(OC(=O)c2ccc3nccnc3c2)c1`, the IC50 is 7.79 µM.

As for `CCCCCCC1CC(C)(C(=O)CNc2nncs2)OC1=O` (centres undefined), the IC50 is 20.3 µM (inactive).

For the molecule `O=[N+]([O-])c1cc([N+](=O)[O-])c2cc3ccccc3nc2c1`, the IC50 was less than 0.1 µM.

Consider `COC(=O)c1ccccc1Sc1ncnc2onc(C)c12`, for which the IC50 is 6.54 µM.

`Nc1nonc1C(=O)NCCN=Cc1cc(Cc2ccccc2)cc(Br)c1O`: the half-inhibitory concentration (IC50) was 5.63 µM.

Regarding `O=C(OCC(=O)N1CCc2ccccc21)c1ccc([N+](=O)[O-])cc1`, the IC50 is 12.5 µM (inactive).
